Measured values: US20210214385A1, “INHIBITORS OF D-AMINO ACID OXIDASE AND USES THEREOF” (SyneuRx International (Taiwan) Corp., priority 2018, published 2021)
Values joined by “and” are separate entries in the source; they are usually repeats but may differ in a detail not shown here. Identical values can stand only once.

Key:
[1] = molecular target: human D-amino acid oxidase (hDAAO) (Homo sapiens, UniProt P14920); experiment: In vitro measurement of human D-amino acid oxidase (hDAAO) activity, D-Serine substrate, Amplex Red fluorescence; assay type: biochemical
Sequence of human D-amino acid oxidase (hDAAO) (P14920 whole entry): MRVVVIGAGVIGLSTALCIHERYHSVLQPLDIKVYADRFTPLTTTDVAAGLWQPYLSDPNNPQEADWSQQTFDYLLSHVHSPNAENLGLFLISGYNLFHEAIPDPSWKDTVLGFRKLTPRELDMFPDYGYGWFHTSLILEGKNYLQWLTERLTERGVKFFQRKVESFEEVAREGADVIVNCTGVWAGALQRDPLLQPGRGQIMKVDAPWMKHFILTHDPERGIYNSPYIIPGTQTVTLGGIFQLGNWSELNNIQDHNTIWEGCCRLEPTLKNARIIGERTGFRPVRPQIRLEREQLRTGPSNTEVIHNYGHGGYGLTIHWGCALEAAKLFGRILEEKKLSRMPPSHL

[2] = Log P, n-octanol/water partition coefficient, HPLC; assay type: physicochemical
Description: The sample compounds tested in the log P experiments included enriched tannic acid (prepared by the enrichment method 10 of U.S. Ser. No. 10/105,378), compounds 21, 24, 27, 46, and 56. First, n-Octanol and water was saturated with each other to achieve partition equilibrium and the two phases were separated for further use. Sample compounds were dissolved in water and n-octanol phase, respectively. Both phases were mixed by vertical rotation movement. After the water and n-octal phases reached equilibrium state, both phases were analyzed to determine the concentrations of the sample compounds for the determination of log P values. All samples were performed in a Shimadzu CBM-20A FfPLC system. The chromatographic separation was carried out on a 5 μm, Kinetex C18 100 Å LC column (100×4.6 mm). The mobile phase was 0.1% formic acid in water and acetonitrile/Methanol set as gradient. Flow rate used was 1.2 mL/min. Column was at room temperature 20±5° C.
The partition coefficient abbreviated P is calculated based on the concentration in n-octanol divided by the concentration in water. The formula of log P is shown below: […]

Row | Compound | IC50 [1] | logP [2]
1 | O=C(OC[C@H]1O[C@H](OC(=O)c2cc(O)c(O)c(OC(=O)c3cc(O)c(O)c(O)c3)c2)[C@H](OC(=O)c2cc(O)c(O)c(OC(=O)c3cc(O)c(O)c(O)c3)c2)[C@@H](OC(=O)c2cc(O)c(O)c(OC(=O)c3cc(O)c(O)c(O)c3)c2)[C@@H]1OC(=O)c1cc(O)c(O)c(OC(=O)c2cc(O)c(O)c(O)c2)c1)c1cc(O)c(O)c(OC(=O)c2cc(O)c(O)c(O)c2)c1 [Compound 21, (2R,3R,4S,5R,6R)-6-(((3,4-dihydroxy-5-((3,4,5-trihydroxybenzoyl)oxy)benzoyl)oxy)methyl)tetrahydro-2H-pyran-2,3,4,5-tetrayl tetrakis(3,4-dihydroxy-5-((3,4,5-trihydroxybenzoyl)oxy)benzoate)] | 19.4 nM and 20 nM | 1.32
2 | O=C(OC[C@H]1O[C@H](OC(=O)c2cc(O)c(O)c(OC(=O)c3cc(O)c(O)c(OC(=O)c4cc(O)c(O)c(OC(=O)c5cc(O)c(O)c(O)c5)c4)c3)c2)[C@H](OC(=O)c2cc(O)c(O)c(OC(=O)c3cc(O)c(O)c(OC(=O)c4cc(O)c(O)c(OC(=O)c5cc(O)c(O)c(O)c5)c4)c3)c2)[C@@H](OC(=O)c2cc(O)c(O)c(OC(=O)c3cc(O)c(O)c(OC(=O)c4cc(O)c(O)c(OC(=O)c5cc(O)c(O)c(O)c5)c4)c3)c2)[C@@H]1OC(=O)c1cc(O)c(O)c(OC(=O)c2cc(O)c(O)c(OC(=O)c3cc(O)c(O)c(OC(=O)c4cc(O)c(O)c(O)c4)c3)c2)c1)c1cc(O)c(O)c(OC(=O)c2cc(O)c(O)c(OC(=O)c3cc(O)c(O)c(OC(=O)c4cc(O)c(O)c(O)c4)c3)c2)c1 [Compound 27, (2R,3R,4S,5R,6R)-6-(((3-((3,4-dihydroxy-5-((3,4-dihydroxy-5-((3,4,5-trihydroxybenzoyl)oxy)benzoyl)oxy)benzoyl)oxy)-4,5-dihydroxybenzoyl)oxy)methyl)tetrahydro-2H-pyran-2,3,4,5-tetrayl tetrakis(3-((3,4-dihydroxy-5-((3,4-dihydroxy-5-((3,4,5-trihydroxybenzoyl)oxy)benzoyl)oxy)benzoyl)oxy)-4,5-dihydroxybenzoate)] | 10.9 nM and 11 nM | 0.6
3 | O=C(Oc1ccccc1)c1cc(O)c(O)c(OC(=O)c2cc(O)c(O)c(OC(=O)c3cc(O)c(O)c(OC(=O)c4cc(O)c(O)c(OC(=O)c5cc(O)c(O)c(O)c5)c4)c3)c2)c1 [Compound 46, 5-((5-((5-((2,3-dihydroxy-5-(phenoxycarbonyl)phenoxy)carbonyl)-2,3-dihydroxyphenoxy)carbonyl)-2,3-dihydroxyphenoxy)carbonyl)-2,3-dihydroxyphenyl 3,4,5-trihydroxybenzoate] | 24.6 nM and 24 nM | 2.02
4 | O=C(Oc1cc(OC(=O)c2cc(O)c(O)c(OC(=O)c3cc(O)c(O)c(OC(=O)c4cc(O)c(O)c(OC(=O)c5cc(O)c(O)c(OC(=O)c6cc(O)c(O)c(O)c6)c5)c4)c3)c2)cc(OC(=O)c2cc(O)c(O)c(OC(=O)c3cc(O)c(O)c(OC(=O)c4cc(O)c(O)c(OC(=O)c5cc(O)c(O)c(OC(=O)c6cc(O)c(O)c(O)c6)c5)c4)c3)c2)c1)c1cc(O)c(O)c(OC(=O)c2cc(O)c(O)c(OC(=O)c3cc(O)c(O)c(OC(=O)c4cc(O)c(O)c(OC(=O)c5cc(O)c(O)c(O)c5)c4)c3)c2)c1 [Compound 56, benzene-1,3,5-triyl tris(3-((3-((3-((3,4-dihydroxy-5-((3,4,5-trihydroxybenzoyl)oxy)benzoyl)oxy)-4,5-dihydroxybenzoyl)oxy)-4,5-dihydroxybenzoyl)oxy)-4,5-dihydroxybenzoate)] | 5.4 nM and 5 nM | 1.92
5 | O=C(Oc1cc(OC(=O)c2cc(O)c(O)c(OC(=O)c3cc(O)c(O)c(OC(=O)c4cc(O)c(O)c(OC(=O)c5cc(O)c(O)c(OC(=O)c6cc(O)c(O)c(OC(=O)c7cc(O)c(O)c(OC(=O)c8cc(O)c(O)c(O)c8)c7)c6)c5)c4)c3)c2)cc(OC(=O)c2cc(O)c(O)c(OC(=O)c3cc(O)c(O)c(OC(=O)c4cc(O)c(O)c(OC(=O)c5cc(O)c(O)c(OC(=O)c6cc(O)c(O)c(OC(=O)c7cc(O)c(O)c(OC(=O)c8cc(O)c(O)c(O)c8)c7)c6)c5)c4)c3)c2)c1)c1cc(O)c(O)c(OC(=O)c2cc(O)c(O)c(OC(=O)c3cc(O)c(O)c(OC(=O)c4cc(O)c(O)c(OC(=O)c5cc(O)c(O)c(OC(=O)c6cc(O)c(O)c(OC(=O)c7cc(O)c(O)c(O)c7)c6)c5)c4)c3)c2)c1 [Compound 58, benzene-1,3,5-triyl tris(3-((3-((3-((3-((3-((3,4-dihydroxy-5-((3,4,5-trihydroxybenzoyl)oxy)benzoyl)oxy)-4,5-dihydroxybenzoyl)oxy)-4,5-dihydroxybenzoyl)oxy)-4,5-dihydroxybenzoyl)oxy)-4,5-dihydroxybenzoyl)oxy)-4,5-dihydroxybenzoate)] | 2.71 nM and 3 nM | 
6 | O=C(OC[C@H]1O[C@H](OC(=O)c2cc(O)c(O)c(O)c2)[C@H](OC(=O)c2cc(O)c(O)c(O)c2)[C@@H](OC(=O)c2cc(O)c(O)c(O)c2)[C@@H]1OC(=O)c1cc(O)c(O)c(O)c1)c1cc(O)c(O)c(O)c1 [Compound 101] | 53.2 nM and 51 nM | 
7 | O=C(OC[C@H]1O[C@@H](OC(=O)c2cc(O)c(O)c(O)c2)[C@H](OC(=O)c2cc(O)c(O)c(O)c2)[C@@H](OC(=O)c2cc(O)c(O)c(O)c2)[C@@H]1OC(=O)c1cc(O)c(O)c(O)c1)c1cc(O)c(O)c(O)c1 [Compound 102] | 54.2 nM and 53 nM | 
8 | O=C(OCC1OC(OC(=O)c2cc(O)c(O)c(OC(=O)c3cc(O)c(O)c(O)c3)c2)C(OC(=O)c2cc(O)c(O)c(OC(=O)c3cc(O)c(O)c(O)c3)c2)C(OC(=O)c2cc(O)c(O)c(OC(=O)c3cc(O)c(O)c(O)c3)c2)C1OC(=O)c1cc(O)c(O)c(OC(=O)c2cc(O)c(O)c(O)c2)c1)c1cc(O)c(O)c(OC(=O)c2cc(O)c(O)c(O)c2)c1 (stereo not drawn) [Compound 103] | 19.4 nM and 20 nM | 
